Data reported in patent US8927547B2, “Pyrimidine derivatives” (Noviga Research AB, priority 2010, dated 2015).

Assays:
Assay type in all cases: cell-based
[1] = test system: A2780/Adr; experiment: FMCA, A2780/Adr doxorubicin-resistant ovarian cancer; conditions: read-out: EC50 (μM) in various cancer cell lines: A2780/Adr
Description: (§1) The Fluorometric Microculture Cytotoxicity Assay, FMCA, is a three day non-clonogenic microplate-based cell viability assay used for measurement of the cytotoxic and/or cytostatic effect of compounds in vitro (Lindhagen, E., et al. Nat Protoc, 2008. 3(8): p. 1364-9). FMCA (Larsson, R. and P. Nygren, Anticancer Res, 1989. 9(4): p. 1111-9) represents a valuable method to measure cytotoxicity in a number of cell types, both cell lines and primary cells from patients (Larsson, R., et al., Int J Cancer, 1992. 50(2): p. 177-85; Fridborg, H., et al., Eur J Cancer, 1999. 35(3): p. 424-32; Dhar, S., et al., Br J Cancer, 1996. 74(6): p. 888-96).
(§2) FMCA is based on the principle that fluorescein diacetate (FDA) is converted to the fluorescent probe fluorescein by esterases in the plasma membranes of living cells. For experiments, 96 or 384-well microplates are prepared with compounds and stored at −70° C. until use. Cells are then seeded into the drug-prepared plates and placed in an incubator for 72 h. On the last day of incubation, the plates are washed and a buffer containing FDA is added and incubated with the cells for 45 minutes. Finally the fluorescence per well is measured in a fluorometer and a Survival Index % (SI) for each compound-treated well is calculated with the equation: Compound-treated cells minus blank divided by control cells minus blank. A high SI-value indicates a large percentage of living cells and vice versa.
(§3) Compounds of the invention as well as kinase inhibitors sorafenib, sunitinib, dasatinib, and pazopanib (reference compounds) were diluted with PBS to a concentration which was ten-times higher than the desired starting concentration. Then, a Biomek 2000 liquid handling system was employed to serially dilute the compounds in a deep-well 384-well plate. From this plate, assay plates containing 5 μl compound per well were prepared with the Biomek 2000. Certain compounds precipitated when diluted with PBS, and these compounds were therefore prepared in a 96-well plate manually as described above using culture medium RPMI 1640 instead of PBS.
(§4) The compounds were also tested at five concentrations, with five times serial dilution on the following cell types: CCRF-CEM, hTERT-RPE1 (normal retinal epithelial cells), hRPTEpiC (normal renal cells) and PBMC (peripheral blood mononuclear cells). Each experiment was performed three times, except for PBMC and hRPTEpiC, which were performed twice. SI-values were calculated, graphs were plotted using GraphPadPrism 5.0 (GraphPad Software Inc. La Jolla, Calif.) and EC50-values for each cell type and compound were determined from the curves.
(§5) The compounds of the invention were also tested on further cancer cell lines related to colon cancer (HCT116; see e.g Brattain M G, et al. Cancer Res. 1981, 41, 1751-1756), breast cancer (MCF7; see e.g. Soule H D, et al. J. Natl. Cancer Inst. 1973, 51, 1409-1416), teniposide-resistant leukaemia (CEM/VM1; see e.g. Danks M K et al. Cancer Res. 1987, 47, 1297-1301), lung cancer (H69; see e.g. Gazdar A F, et al. Cancer Res. 1980, 40, 3502-3507), doxorubicin-resistant lung cancer (H69AR; see e.g. Mirski S E, et al. Cancer Res. 1987, 47, 2594-2598), myeloma (RPMI 8226; see e.g. Matsuoka Y, et al. Proc. Soc. Exp. Biol. Med. 1967, 125, 1246-1250), doxorubicin-resistant myeloma (8226/Dox40; see e.g. Dalton W S et al. Blood 1989, 15,747-752), lymphoma (U-937, see e.g. Sundstrom C, et al. Int. […]

[2] = test system: BxPC-3; experiment: FMCA, BxPC-3 pancreatic cancer; conditions: Homo sapiens, read-out: EC50 (μM) in various cancer cell lines: BxPC-3
Description: as §1
as §2, with “versa. […]” for “versa.”
as §4, with “Each experiment was performed three times, except for PBMC and hRPTEpiC, which were performed twice.” left out, “curves. […]” for “curves.”

[3] = test system: MCF7; experiment: FMCA, MCF7 breast cancer; conditions: Homo sapiens, read-out: EC50 (μM) in various cancer cell lines: MCF7
Description: as §1, §2, §3, §4
as §5, with “Int. J. Cancer 1976, 17, 565-577), vincristin-resistant lymphoma (U-937-vcr; see e.g. Botling J, et al. Int J Cancer 1994, 15; 58 (2), 269-274), ovarian cancer (A2780; see e.g. Hamilton T C, et al. Semin Oncol. 1984, 11, 285-298), doxorubicin-resistant ovarian cancer (A2780/Adr), cisplatin-resistant ovarian cancer (A2780/Cis; see e.g. Behrens B C, et al. Cancer Res. 1987, 47, 414-418), renal cancer (ACHN; see e.g. Borden E C, et al. Cancer Res. 1982, 42(12), 4948-4953), pancreatic cancer (PANC-1, BxPC-3, and MIA PaCa-2; see e.g. Lieber M, et al. Int.” for “Int.”

[4] = test system: CCRF-CEM cancer cells - leukaemia; experiment: Fluorometric Microculture Cytotoxicity Assay (FMCA), CCRF-CEM; conditions: Homo sapiens, 72 h incubation
Description: as §1, §2
In subsequent experiments, compounds were tested, along with kinase inhibitors (dasatinib, pazopanib, sorafenib, and sunitinib) as described above. Initially, the acute lymphoblastic leukaemia cell line CCRF-CEM (see e.g. Foley G E, et al. Cancer 1965, 18, 522-529) was used throughout. In the assay plates, medium was added to six empty wells (blank wells) and wells were filled with PBS and cell suspension and served as control wells. SI-values were then calculated for each compound-treated well as described above. All experiments were conducted twice and a new batch of plates was prepared for each experiment.
For dose-response experiments, 384-well plates were prepared as follows:
as §3, §4

[5] = test system: A2780/Cis; experiment: FMCA, A2780/Cis cisplatin-resistant ovarian cancer; conditions: A2780cis, read-out: EC50 (μM) in various cancer cell lines: A2780/Cis
Description: as §1, §2, §3, §4, §5

[6] = test system: HCT116; experiment: FMCA, HCT116 colon cancer; conditions: Homo sapiens, HCT-116, read-out: EC50 (μM) in various cancer cell lines: HCT116
Description: as §1, §2, §3, §4
as §5, with “Int. J. Cancer 1976, 17, 565-577), vincristin-resistant lymphoma (U-937-vcr; see e.g. Botling J, et al. Int J Cancer 1994, 15; 58 (2), 269-274), ovarian cancer (A2780; see e.g. Hamilton T C, et al. Semin Oncol. 1984, 11, 285-298), doxorubicin-resistant ovarian cancer (A2780/Adr), cisplatin-resistant ovarian cancer (A2780/Cis; see e.g. Behrens B C, et al. Cancer Res. 1987, 47, 414-418), renal cancer (ACHN; see e.g. Borden E C, et al. Cancer Res. 1982, 42(12), 4948-4953), pancreatic cancer (PANC-1, BxPC-3, and MIA PaCa-2; see e.g. Lieber M, et al. Int.” for “Int.”

[7] = test system: H69AR; experiment: FMCA, H69AR doxorubicin-resistant lung cancer; conditions: Homo sapiens, read-out: EC50 (μM) in various cancer cell lines: H69 AR
Description: as §1, §2, §3, §4
as §5, with “Int. J. Cancer 1976, 17, 565-577), vincristin-resistant lymphoma (U-937-vcr; see e.g. Botling J, et al. Int J Cancer 1994, 15; 58 (2), 269-274), ovarian cancer (A2780; see e.g. Hamilton T C, et al. Semin Oncol. 1984, 11, 285-298), doxorubicin-resistant ovarian cancer (A2780/Adr), cisplatin-resistant ovarian cancer (A2780/Cis; see e.g. Behrens B C, et al. Cancer Res. 1987, 47, 414-418), renal cancer (ACHN; see e.g. Borden E C, et al. Cancer Res. 1982, 42(12), 4948-4953), pancreatic cancer (PANC-1, BxPC-3, and MIA PaCa-2; see e.g. Lieber M, et al. Int.” for “Int.”

[8] = test system: MIA PaCa-2; experiment: FMCA, MIA PaCa-2 pancreatic cancer; conditions: Homo sapiens, read-out: EC50 (μM) in various cancer cell lines: MIA PaCa-2
Description: as §1
as §2, with “versa. […]” for “versa.”
as §4, with “Each experiment was performed three times, except for PBMC and hRPTEpiC, which were performed twice.” left out, “curves. […]” for “curves.”

- EC50 [1]: 1.9 µM
- EC50 [2]: < 0.1 µM
- EC50 [3]: 3.88 µM
- EC50 [5]: 0.61 µM
- EC50 [6]: 0.63 µM
- EC50 [7]: 0.27 µM
- EC50 [8]: < 0.1 µM
SMILES: COc1ccc2[nH]cc(CCNc3nccc(NCc4ccc5[nH]ccc5c4)n3)c2c1 [Example 12, N^4-(1H-indol-5-ylmethyl)-N^2-[2-(5-methoxy-1H-indol-3-yl)ethyl]pyrimidine-2,4-diamine]
- EC50 [4]: 760 nM
